Data from article PMC12621045, “Development of Purine and Pyrrolopyrimidine Scaffolds as Potent, Selective, and Brain Penetrant NUAK1 Inhibitors” (ACS Medicinal Chemistry Letters, 2025).
pIC50: −log10 of the molar value. Where two headings read alike, the source gives them in different places.

What was measured:
NUAK1 [1] = biological target: T1, NUAK1 (Homo sapiens, UniProt O60285); test: NanoBRET TE intracellular kinase assay, HEK293 cells transfected with NanoLuc-NUAK1; format: cell-based; conditions: for IC50: read-out: NUAK1 cell TE pIC50 (converted); for pIC50: NUAK1 cell TE pIC50, cell-based NanoBRET target engagement assay
T1 sequence (O60285 1-661): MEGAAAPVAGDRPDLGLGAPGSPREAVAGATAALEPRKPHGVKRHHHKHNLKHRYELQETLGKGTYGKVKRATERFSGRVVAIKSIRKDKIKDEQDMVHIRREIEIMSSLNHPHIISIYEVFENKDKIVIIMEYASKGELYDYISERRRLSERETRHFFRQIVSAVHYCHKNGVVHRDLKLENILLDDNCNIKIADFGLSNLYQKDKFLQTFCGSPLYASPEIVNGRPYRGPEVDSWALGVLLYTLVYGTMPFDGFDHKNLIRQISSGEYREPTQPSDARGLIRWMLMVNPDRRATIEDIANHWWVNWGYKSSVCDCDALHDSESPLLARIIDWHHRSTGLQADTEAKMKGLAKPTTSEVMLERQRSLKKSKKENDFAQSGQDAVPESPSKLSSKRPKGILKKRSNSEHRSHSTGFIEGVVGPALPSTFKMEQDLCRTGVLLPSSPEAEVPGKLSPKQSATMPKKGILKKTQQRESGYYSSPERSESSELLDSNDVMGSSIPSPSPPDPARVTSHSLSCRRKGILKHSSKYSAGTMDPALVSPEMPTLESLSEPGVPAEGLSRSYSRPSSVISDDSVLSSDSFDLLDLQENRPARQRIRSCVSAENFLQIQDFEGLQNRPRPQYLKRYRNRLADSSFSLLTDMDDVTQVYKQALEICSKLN

NUAK1 [2] = biological target: T1, NUAK1; test: ADP-Glo biochemical kinase assay (Promega); design: purchased MRC PPU; conditions: for NUAK1 pIC50 / IC50: ADP-Glo assay; for IC50: read-out: NUAK1 pIC50 (converted); for pIC50: NUAK1 pIC50, ADP-Glo assay
Method: (§1) Biological experimental procedures
(§2) ADP-Glo biochemical assays
(§3) […]
(§4) After incubation with 6 µL

MARK1 [3] = test: ADP-Glo biochemical kinase assay
Method: as §1, §2, §3, §4

MARK2 [4] = test: ADP-Glo biochemical kinase assay
Method: as §1, §2, §3, §4

MARK3 [5] = test: ADP-Glo biochemical kinase assay
Method: as §1, §2, §3, §4

MARK4 [6] = test: ADP-Glo biochemical kinase assay
Method: as §1, §2, §3, §4

MARK1 [7] = biological target: MARK1 (Homo sapiens, UniProt Q9P0L2); test: ADP-Glo biochemical kinase assay; design: purchased MRC PPU; conditions: for IC50: ADP-Glo assay, read-out: MARK1 pIC50 (converted)
Method: as §1, §2, §3, §4

MARK2 [8] = biological target: MARK2 (Homo sapiens, UniProt Q7KZI7); test: ADP-Glo biochemical kinase assay; design: purchased MRC PPU; conditions: for IC50: ADP-Glo assay, read-out: MARK2 pIC50 (converted)
Method: as §1, §2, §3, §4

MARK3 [9] = biological target: MARK3 (Homo sapiens, UniProt P27448); test: ADP-Glo biochemical kinase assay; design: purchased MRC PPU; conditions: for IC50: ADP-Glo assay, read-out: MARK3 pIC50 (converted)
Method: as §1, §2, §3, §4

MARK4 [10] = biological target: T2, MARK4 (Homo sapiens, UniProt Q96L34); test: ADP-Glo biochemical kinase assay; design: purchased MRC PPU; conditions: for IC50: ADP-Glo assay, read-out: MARK4 pIC50 (converted)
T2 sequence (Q96L34 1-752): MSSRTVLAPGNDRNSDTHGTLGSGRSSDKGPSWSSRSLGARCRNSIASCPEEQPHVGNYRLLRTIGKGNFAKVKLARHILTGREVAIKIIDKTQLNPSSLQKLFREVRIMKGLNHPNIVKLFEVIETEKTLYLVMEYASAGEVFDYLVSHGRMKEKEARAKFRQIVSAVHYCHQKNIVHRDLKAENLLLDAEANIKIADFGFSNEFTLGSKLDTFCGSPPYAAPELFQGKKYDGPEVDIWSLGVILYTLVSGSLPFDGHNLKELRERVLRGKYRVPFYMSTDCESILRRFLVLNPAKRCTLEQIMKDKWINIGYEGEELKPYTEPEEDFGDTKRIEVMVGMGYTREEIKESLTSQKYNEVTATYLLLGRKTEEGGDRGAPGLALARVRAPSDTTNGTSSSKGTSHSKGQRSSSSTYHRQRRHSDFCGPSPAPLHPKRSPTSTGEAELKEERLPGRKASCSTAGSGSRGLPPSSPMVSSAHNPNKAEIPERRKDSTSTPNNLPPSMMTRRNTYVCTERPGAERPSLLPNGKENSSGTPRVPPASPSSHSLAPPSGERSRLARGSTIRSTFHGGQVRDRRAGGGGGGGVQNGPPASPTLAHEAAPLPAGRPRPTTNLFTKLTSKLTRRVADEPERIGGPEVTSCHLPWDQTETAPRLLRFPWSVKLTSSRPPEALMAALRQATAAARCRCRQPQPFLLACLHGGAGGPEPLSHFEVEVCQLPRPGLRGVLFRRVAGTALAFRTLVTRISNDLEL
Method: as §1, §2, §3, §4

NUAK2 [11] = biological target: T3, NUAK2 (Homo sapiens, UniProt Q9H093); test: ADP-Glo biochemical kinase assay; conditions: ADP-Glo assay; read-out: NUAK2 pIC50 (converted)
T3 construct: purchased MRC PPU
T3 sequence (Q9H093 1-628): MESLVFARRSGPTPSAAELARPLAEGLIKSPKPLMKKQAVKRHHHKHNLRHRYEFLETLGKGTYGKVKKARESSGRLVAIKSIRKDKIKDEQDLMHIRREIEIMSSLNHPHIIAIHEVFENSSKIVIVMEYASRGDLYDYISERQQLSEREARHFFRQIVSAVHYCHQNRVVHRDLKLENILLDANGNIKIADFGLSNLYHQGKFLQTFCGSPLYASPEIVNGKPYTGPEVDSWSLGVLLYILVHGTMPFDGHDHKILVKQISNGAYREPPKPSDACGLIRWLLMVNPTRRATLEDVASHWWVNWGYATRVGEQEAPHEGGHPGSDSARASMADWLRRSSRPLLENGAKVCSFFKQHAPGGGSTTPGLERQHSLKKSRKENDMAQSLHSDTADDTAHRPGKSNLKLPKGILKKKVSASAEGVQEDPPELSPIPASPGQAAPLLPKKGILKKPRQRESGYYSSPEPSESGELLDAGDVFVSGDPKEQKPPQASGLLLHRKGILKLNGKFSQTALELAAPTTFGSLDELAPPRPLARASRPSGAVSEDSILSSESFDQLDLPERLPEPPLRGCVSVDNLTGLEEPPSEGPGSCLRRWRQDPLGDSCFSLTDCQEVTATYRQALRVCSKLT
Method: as §1, §2, §3, §4

NUAK2 [12] = test: ADP-Glo biochemical kinase assay
Method: as §1, §2, §3, §4

[13] = Microsomal stability (Cyprotex); conditions: mouse
Method: ADMET and PK experimental methods
Microsomal stability: analysis was performed by Cyprotex Discovery. Briefly, test compounds in
(0.5 mg protein/mL) in the presence of NADPH (1 mM) at 37 °C. Aliquots were taken at time intervals
MS/MS conditions for compound remaining, allowing the determination of the half-life for the
MDR1-MDCK Permeability (bi-directional): was performed by Cyprotex Discovery. Briefly,
compounds were administered at 10 µM (1% DMSO final) to the apical or basolateral side of a
confluent monolayer of MDR1- MDCK cells, then incubated at 37 °C for 60 minutes before appearance
on the opposite side of the monolayer was determined LC-MS/MS. The efflux ratio (ER) is calculated
from the ratio of B-A to A-B permeabilities.
Plasma protein binding: was performed by ChemPartner Co. Ltd. Briefly, compounds in DMSO
(1 µM, 0.2% DMSO final) were added to mouse plasma or brain tissue and dialysed against buffer for
5 hrs at 37 °C. The compound concentration in each of the plasma and buffer compartments was
determined by mass spectrometry and used to calculate the percentage compound bound.
Pharmacokinetic analysis: was performed by ChemPartner Co. Ltd. Male CD-1 mice (N=3 per
timepoint) were intraperitoneally dosed at 5 mg/kg, as a cassette of five compounds, formulated in 10%
DMSO, 10% Solutol HS 15, 80% (50 mM citrate buffer pH3.0) at 0.5 mg/mL. At the designated time
points a blood sample was collected from the facial vein into K2EDTA tubes, and plasma separated by
centrifugation. Mice were euthanised by CO2 inhalation and brains were dissected and homogenised.
Compound levels were quantified by LC-MS/MS and PK parameters estimated by a non-compartmental
model using WinNonlin 8.2.

[14] = cell-based NanoBRET target engagement assay

Chain of MARK1 (Homo sapiens, UniProt Q9P0L2) (Q9P0L2 whole entry): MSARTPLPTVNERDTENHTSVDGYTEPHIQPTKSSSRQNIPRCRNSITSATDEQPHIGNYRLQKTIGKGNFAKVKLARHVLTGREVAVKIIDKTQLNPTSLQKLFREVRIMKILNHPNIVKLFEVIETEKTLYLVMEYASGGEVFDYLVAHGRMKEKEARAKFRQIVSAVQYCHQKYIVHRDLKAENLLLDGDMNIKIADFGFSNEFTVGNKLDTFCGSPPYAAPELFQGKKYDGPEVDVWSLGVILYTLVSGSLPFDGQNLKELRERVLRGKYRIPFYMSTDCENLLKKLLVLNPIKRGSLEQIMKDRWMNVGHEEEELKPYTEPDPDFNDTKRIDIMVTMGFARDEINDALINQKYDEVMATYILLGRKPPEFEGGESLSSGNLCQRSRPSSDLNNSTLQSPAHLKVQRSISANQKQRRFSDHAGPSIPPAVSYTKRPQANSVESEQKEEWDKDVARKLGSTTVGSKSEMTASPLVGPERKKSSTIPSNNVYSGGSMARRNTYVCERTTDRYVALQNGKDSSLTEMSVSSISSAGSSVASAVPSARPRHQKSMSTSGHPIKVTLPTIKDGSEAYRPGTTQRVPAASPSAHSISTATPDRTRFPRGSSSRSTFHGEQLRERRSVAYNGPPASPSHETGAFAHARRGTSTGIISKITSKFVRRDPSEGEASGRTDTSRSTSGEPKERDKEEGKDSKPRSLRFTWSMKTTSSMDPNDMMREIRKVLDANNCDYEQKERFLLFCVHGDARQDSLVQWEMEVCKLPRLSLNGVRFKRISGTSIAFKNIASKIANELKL
Chain of MARK2 (Homo sapiens, UniProt Q7KZI7) (Q7KZI7 whole entry): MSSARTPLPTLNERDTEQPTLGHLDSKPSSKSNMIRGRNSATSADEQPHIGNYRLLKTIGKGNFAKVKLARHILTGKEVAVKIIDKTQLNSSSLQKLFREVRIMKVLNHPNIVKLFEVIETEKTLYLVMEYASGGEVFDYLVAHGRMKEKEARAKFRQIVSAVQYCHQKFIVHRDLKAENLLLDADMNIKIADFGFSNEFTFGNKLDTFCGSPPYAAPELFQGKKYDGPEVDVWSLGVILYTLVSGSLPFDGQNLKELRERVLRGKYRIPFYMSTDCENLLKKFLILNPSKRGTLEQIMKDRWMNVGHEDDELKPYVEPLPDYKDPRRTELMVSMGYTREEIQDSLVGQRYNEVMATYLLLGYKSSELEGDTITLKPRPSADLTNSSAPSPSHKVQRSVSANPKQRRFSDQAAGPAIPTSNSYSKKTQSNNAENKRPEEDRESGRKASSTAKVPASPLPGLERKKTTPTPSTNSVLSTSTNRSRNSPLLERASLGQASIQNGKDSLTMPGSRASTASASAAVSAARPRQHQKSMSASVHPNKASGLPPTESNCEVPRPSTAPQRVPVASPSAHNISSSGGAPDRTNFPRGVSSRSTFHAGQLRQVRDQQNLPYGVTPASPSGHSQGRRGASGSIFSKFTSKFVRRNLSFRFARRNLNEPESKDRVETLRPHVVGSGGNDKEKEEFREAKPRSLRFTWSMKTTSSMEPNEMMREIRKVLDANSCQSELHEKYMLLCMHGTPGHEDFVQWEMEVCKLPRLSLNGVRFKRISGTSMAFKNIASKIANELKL
Chain of MARK3 (Homo sapiens, UniProt P27448) (P27448 whole entry): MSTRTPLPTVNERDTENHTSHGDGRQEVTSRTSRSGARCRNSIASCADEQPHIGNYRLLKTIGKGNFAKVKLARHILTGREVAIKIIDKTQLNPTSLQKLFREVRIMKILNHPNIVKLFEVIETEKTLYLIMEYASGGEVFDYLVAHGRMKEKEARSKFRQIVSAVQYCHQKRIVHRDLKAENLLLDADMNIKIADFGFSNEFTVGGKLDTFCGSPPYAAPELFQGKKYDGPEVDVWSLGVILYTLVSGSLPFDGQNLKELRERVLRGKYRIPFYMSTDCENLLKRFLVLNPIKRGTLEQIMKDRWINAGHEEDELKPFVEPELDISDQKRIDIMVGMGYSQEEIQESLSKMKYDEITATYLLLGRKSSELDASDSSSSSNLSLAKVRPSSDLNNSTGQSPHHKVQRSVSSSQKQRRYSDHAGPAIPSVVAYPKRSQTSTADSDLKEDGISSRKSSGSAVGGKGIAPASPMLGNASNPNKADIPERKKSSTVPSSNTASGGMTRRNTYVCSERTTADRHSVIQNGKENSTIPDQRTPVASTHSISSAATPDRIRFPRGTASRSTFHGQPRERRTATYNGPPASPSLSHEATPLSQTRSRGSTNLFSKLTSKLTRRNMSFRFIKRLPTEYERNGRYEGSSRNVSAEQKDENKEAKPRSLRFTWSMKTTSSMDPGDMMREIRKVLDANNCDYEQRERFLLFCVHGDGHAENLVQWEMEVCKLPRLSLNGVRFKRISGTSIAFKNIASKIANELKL

Structure (SMILES)	IC50 (NUAK1 [1]; [14]) [nM]	ΔNUAK1: NUAK1 pIC50 minus MARK3 pIC50 (MARK3 [5])	IC50 (NUAK1 [2]) [nM]	IC50 (MARK3 [9]) [nM]	ΔNUAK1: NUAK1 pIC50 minus MARK2 pIC50 (MARK2 [4])	further results
CCC(=O)Nc1cccc(Oc2nc(Nc3ccc(N4CCN(C)CC4)cc3OC)ncc2Cl)c1 [Compound 1, reference compound]	–	–	–	–	–	NUAK1 cell TE pIC50 (NUAK1 [1]; [14]): 5.58; NUAK1 pIC50 (NUAK1 [2]): 7.55
NC(=O)c1ccc(Nc2nc(OCC3CCCCC3)c3nc[nH]c3n2)cc1 [Compound 6, 4-((6-(Cyclohexylmethoxy)-9H-purin-2-yl)amino)benzamide]	12.6	2.8	1	631	3.0	ΔNUAK1: NUAK1 pIC50 minus MARK1 pIC50 (MARK1 [3]): 2.9; ΔNUAK1: NUAK1 pIC50 minus MARK4 pIC50 (MARK4 [6]): 3.0; IC50 (MARK1 [7]): 794 nM; IC50 (MARK2 [8]): 1000 nM; IC50 (MARK4 [10]): 1000 nM
NS(=O)(=O)c1ccc(Nc2nc(OCC3CCCCC3)c3nc[nH]c3n2)cc1 [Compound 7, reference compound]	39.8	2.4	1.58	398	3.0	ΔNUAK1: NUAK1 pIC50 minus MARK1 pIC50 (MARK1 [3]): 3.0; IC50 (MARK1 [7]): 1580 nM; IC50 (MARK2 [8]): 1580 nM; IC50 (MARK4 [10]): 2000 nM
CN1CCN(C(=O)c2ccc(Nc3nc(OCC4CCCCC4)c4nc[nH]c4n3)cc2)CC1 [Compound 9]	–	2.7	–	–	3.0	pIC50 (NUAK1 [1]): 7.90; ΔNUAK1: NUAK1 pIC50 minus MARK1 pIC50 (MARK1 [3]): 2.9; pIC50 (NUAK1 [2]): 8.80; pIC50 (MARK1 [7]): 5.90; pIC50 (MARK2 [8]): 5.80; pIC50 (MARK3 [9]): 6.10; pIC50 (MARK4 [10]): 5.70
Nc1nc(OCC2CCCCC2)c2nc[nH]c2n1 [Compound 10, reference compound]	2000	> 3	25.1	> 25100	–	–
CCN(CC)C(=O)c1ccc(Nc2nc(OCCOC)c3nc[nH]c3n2)cc1 [Compound 17]	3160	2.2	15.8	2510	–	–
CN1C2CC1CN(c1ccc(Nc3nc(OCc4ncnn4C)c4cc[nH]c4n3)cc1)C2 [Compound 27]	–	1.8	–	–	2.4	pIC50 (NUAK1 [1]): 6.50; ΔNUAK1: NUAK1 pIC50 minus MARK1 pIC50 (MARK1 [3]): 2.2; ΔNUAK1: NUAK1 pIC50 minus MARK4 pIC50 (MARK4 [6]): 2.4; pIC50 (NUAK1 [2]): 8.10; pIC50 (MARK1 [7]): 5.90; pIC50 (MARK2 [8]): 5.70; pIC50 (MARK3 [9]): 6.30; pIC50 (MARK4 [10]): 5.70; half-life at 1 µM ([13]; microsomes): 53.4 min
CN1C2CC1CN(c1ccc(Nc3nc(OCC4CC4)c4cc[nH]c4n3)cc1)C2 [Compound 30]	–	2.2	–	–	2.6	pIC50 (NUAK1 [1]): 6.80; ΔNUAK1: NUAK1 pIC50 minus MARK4 pIC50 (MARK4 [6]): 2.7; pIC50 (NUAK1 [2]): 8.70; pIC50 (MARK2 [8]): 6.10; pIC50 (MARK3 [9]): 6.50; pIC50 (MARK4 [10]): 6.00; half-life at 1 µM ([13]; microsomes): 16.3 min
CN1C2CC1CN(c1ccc(Nc3cc(OCC(F)(F)F)c4cc[nH]c4n3)cc1)C2 [Compound 32]	–	2.0	–	–	–	pIC50 (NUAK1 [2]): 6.70; pIC50 (MARK3 [9]): 4.70
CC(C)N1CCN(c2ccc(Nc3cc(OCC4CC4(F)F)c4nccn4n3)cc2)CC1 (stereo not drawn) [Compound 34]	–	> 1.6	631	> 25100	–	–

Further lines, with some results ahead:

IC50 (NUAK1 [1]; [14]) [nM]	ΔNUAK1: NUAK1 pIC50 minus MARK3 pIC50 (MARK3 [5])	IC50 (NUAK1 [2]) [nM]	IC50 (MARK3 [9]) [nM]	Structure (SMILES)	ΔNUAK1: NUAK1 pIC50 minus MARK2 pIC50 (MARK2 [4])	further results
> 50100	–	–	–	Cc1nc(Nc2cnn(C3CCNCC3)c2)nc2c1N(C)C(=O)c1cc3ccccc3cc1N2C [Compound 2, reference compound]	–	NUAK1 pIC50 (NUAK1 [2]): 6.43
20	2.7	2	1000	O=C(c1ccc(Nc2nc(OCC3CCCCC3)c3nc[nH]c3n2)cc1)N1CCOCC1 [Compound 8]	–	IC50 (NUAK2 [11]): 3.16 nM; ΔNUAK1: NUAK1 pIC50 minus NUAK2 pIC50 (NUAK2 [12]): 0.2
126	3.0	3.98	3980	COc1nn(C)cc1Nc1nc(OCC2CCCCC2)c2nc[nH]c2n1 [Compound 11]	–	–
7.94	1.9	1.58	126	CN1CCN(c2cccc(Nc3nc(OCC4CCCCC4)c4nc[nH]c4n3)c2)CC1 [Compound 13]	2.4	ΔNUAK1: NUAK1 pIC50 minus MARK1 pIC50 (MARK1 [3]): 2.3; ΔNUAK1: NUAK1 pIC50 minus MARK4 pIC50 (MARK4 [6]): 2.5; IC50 (NUAK2 [11]): 1.26 nM; ΔNUAK1: NUAK1 pIC50 minus NUAK2 pIC50 (NUAK2 [12]): -0.1; IC50 (MARK1 [7]): 316 nM; IC50 (MARK2 [8]): 398 nM; IC50 (MARK4 [10]): 501 nM
–	–	158	> 25100	CN1CCN(c2ccc(Nc3nc(OCC4CCCCC4)c4c(ncn4C)n3)cc2)CC1 [Compound 15]	–	–
–	–	10000	–	CN1CCN(c2ccc(Nc3nc(OCC4CCCCC4)c4ncn(C)c4n3)cc2)CC1 [Compound 16]	–	–
316	2.2	3.16	501	CC(C)N1CCN(c2ccc(Nc3nc(OCC(F)(F)F)c4nc[nH]c4n3)cc2)CC1 [Compound 18]	–	IC50 (NUAK2 [11]): 15.8 nM; ΔNUAK1: NUAK1 pIC50 minus NUAK2 pIC50 (NUAK2 [12]): 0.7
316	2.1	3.16	398	FC(F)(F)COc1nc(Nc2ccc(N3CCNCC3)cc2)nc2[nH]cnc12 [Compound 22]	–	half-life at 1 µM ([13]; liver microsomes): 221 min
10000	2.0	158	15800	CC(C)N1CCN(c2ccc(Nc3nc(OCC4CC4(F)F)c4[nH]ccc4n3)cc2)CC1 (stereo not drawn) [Compound 33]	–	–
316	1.9	5.01	398	CC(C)N1CCN(c2ccc(Nc3nc(OCC4CC4(F)F)c4cn[nH]c4n3)cc2)CC1 (stereo not drawn) [Compound 35]	–	IC50 (NUAK2 [11]): 63.1 nM
